Measured values from patent US20080096967A1, “Formulations for Injection of Catecholic Butanes, Including Ndga Compounds, Into Animals” (priority 2005, published 2008).

Legend:
[1] = M4N stability in HP-β-CD/PEG 300 buffer solutions at 60° C. (RP-HPLC, pH); format: physicochemical; details: for M4N concentration (stability): 25% PEG300
Description: The stability of 10 mg/mL M4N (prepared in a ratio of 75:25 40% HP-β-CD: 40 mg/mL M4N PEG 300) in 15 mM buffer solutions was evaluated following incubation at 60° C.
2.0 g HP-β-CD was weighed into 5 mL volumetric flasks on an OHAUS Analytical Plus Balance. 1 mL of a 100 mM buffer solution was added to each flask. Each sample was q.s. to 5 mL with WFI.
750 μL 40% HP-β-CD buffered solution was placed in 1.5 mL polypropylene microtubes. […] After gentle inversion of the sample tubes, the pH of each solution was measured using a Orion, Model 420A pH meter. An initial aliquot was removed for RP-HPLC analysis. Test samples were then placed in a Precision 60° C. incubator. The M4N stability was evaluated by RP-HPLC. At each time point, the samples were centrifuged for 2 minutes at 13,000 rpm to pellet any solid M4N.

Beagle dogs = assay: Intravenous infusion toxicity study (maximum tolerable dose, escalating doses) in Beagle dogs; format: in vivo
Description: The purpose of this study was to determine the maximum tolerable dose of tetra-O-methyl NDGA (M4N) when administered by intravenous infusion to male and female Beagle dogs, supplied by Convince Research Products (Cumberland, Va., U.S.A). Two Beagle dogs, one male and one female, about 6 to 9 months old at first dose, were administered the cyclodextrin vehicle containing 20% (w/v) HP-β-CD and 50% PEG 300, on Study Day (“SD”) 1, followed by escalating levels of M4N prepared in the cyclodextrin vehicle (i.e., the test articles). The preformed cyclodextrin vehicle and test articles were stored at room temperature. Sterile water, used as diluent, was obtained from Baxter Health Care Corp. (Deerfield, Mich., U.S.A) or Abbott Laboratories (North Chicago, Ill., U.S.A.) and stored at room temperature.
The test article, cyclodextrin vehicle and diluent were considered 100% pure for formulation purposes. Dose formulations were prepared on each day of dosing by adding the appropriate amount of test article or cyclodextrin vehicle into a glass container using a sterile syringe. For each dose, an equal amount of sterile water was added to the M4N formulation or cyclodextrin vehicle to form a 50:50 (v/v) dilution. No dilution was required for the 200 mg/kg dose. All formulations were mixed by gentle inversion to ensure that a proper solution was formed. Formulations were loaded into medication cassettes and stored at room temperature until needed.
M4N was administered at 25 mg/kg on SD 3, 50 mg/kg on SD 5, and 100 mg/kg on SD 8. Only the female received the full 100 mg/kg dose; due to mechanical malfunctions caused by precipitation in the infusion line, the male dog received approximately 72 mg/kg (i.e., 72%) of the intended dose. Two additional Beagle dogs were administered a 200 mg/kg dose; however, mechanical difficulties ensued and the male dog received approximately 180 mg/kg (90%) of the intended dose, whereas the amount the female received could not be determined.
Using aseptic surgical techniques, the animals were catheterized with an in-dwelling catheter inserted into the jugular vein, and were treated prophylactically with an analgesic and antibiotic on the day of surgery and with antibiotics and/or analgesics for 8 days following surgery.
Following completion of each intravenous infusion, 1 mL of sterile saline was administered as a slow bolus injection to flush the test material from the infusion line into the animal, followed by an injection of heparin-saline solution to fill the infusion line to maintain patency. The animals were observed. Cageside observation included observation for mortality, morbundity, general health, and signs of toxicity. […]

Structure (SMILES): COc1ccc(C[C@@H](C)[C@@H](C)Cc2ccc(OC)c(OC)c2)cc1OC [Formulation M4N, meso-1,4-bis(3,4-dimethoxyphenyl)-2,3-dimethylbutane]
- change in concentration of M4N solutions ([1]; 10 mg/mL M4N in HP-β-CD/PEG 300, 15 mM buffers, 14 day incubation at 60° C.): slight decrease
- M4N concentration (stability) ([1]; 15 mM Acetate, pH 5, 30% HP-β-CD, 0 days at 60° C.): 10.6 mg/mL
- M4N concentration (stability) ([1]; 15 mM Acetate, pH 5, 30% HP-β-CD, 2 days at 60° C.): 10.2 mg/mL
- M4N concentration (stability) ([1]; 15 mM Acetate, pH 5, 30% HP-β-CD, 6 days at 60° C.): 9.6 mg/mL
- M4N concentration (stability) ([1]; 15 mM Acetate, pH 5, 30% HP-β-CD, 10 days at 60° C.): 9.7 mg/mL
- M4N concentration (stability) ([1]; 15 mM Acetate, pH 5, 30% HP-β-CD, 14 days at 60° C.): 9.6 mg/mL
- M4N concentration (stability) ([1]; 15 mM Acetate, pH 6, 30% HP-β-CD, 0 days at 60° C.): 10.5 mg/mL
- M4N concentration (stability) ([1]; 15 mM Acetate, pH 6, 30% HP-β-CD, 2 days at 60° C.): 10.1 mg/mL
- M4N concentration (stability) ([1]; 15 mM Acetate, pH 6, 30% HP-β-CD, 6 days at 60° C.): 9.7 mg/mL
- M4N concentration (stability) ([1]; 15 mM Acetate, pH 6, 30% HP-β-CD, 10 days at 60° C.): 9.7 mg/mL
- M4N concentration (stability) ([1]; 15 mM Acetate, pH 6, 30% HP-β-CD, 14 days at 60° C.): 9.6 mg/mL
- M4N concentration (stability) ([1]; 15 mM Borate, pH 10, 30% HP-β-CD, 0 days at 60° C.): 10.5 mg/mL
- M4N concentration (stability) ([1]; 15 mM Borate, pH 10, 30% HP-β-CD, 2 days at 60° C.): 10.1 mg/mL
- M4N concentration (stability) ([1]; 15 mM Borate, pH 10, 30% HP-β-CD, 6 days at 60° C.): 9.7 mg/mL
- M4N concentration (stability) ([1]; 15 mM Borate, pH 10, 30% HP-β-CD, 10 days at 60° C.): 9.6 mg/mL
- M4N concentration (stability) ([1]; 15 mM Borate, pH 10, 30% HP-β-CD, 14 days at 60° C.): 9.6 mg/mL
- M4N concentration (stability) ([1]; 15 mM Borate, pH 11, 30% HP-β-CD, 0 days at 60° C.): 10.5 mg/mL
- M4N concentration (stability) ([1]; 15 mM Borate, pH 11, 30% HP-β-CD, 2 days at 60° C.): 10.3 mg/mL
- M4N concentration (stability) ([1]; 15 mM Borate, pH 11, 30% HP-β-CD, 6 days at 60° C.): 9.8 mg/mL
- M4N concentration (stability) ([1]; 15 mM Borate, pH 11, 30% HP-β-CD, 10 days at 60° C.): 9.5 mg/mL
- M4N concentration (stability) ([1]; 15 mM Borate, pH 11, 30% HP-β-CD, 14 days at 60° C.): 9.4 mg/mL
- M4N concentration (stability) ([1]; 15 mM Phosphate, pH 3, 30% HP-β-CD, 0 days at 60° C.): 10.3 mg/mL
- M4N concentration (stability) ([1]; 15 mM Phosphate, pH 3, 30% HP-β-CD, 2 days at 60° C.): 10.1 mg/mL
- M4N concentration (stability) ([1]; 15 mM Phosphate, pH 3, 30% HP-β-CD, 6 days at 60° C.): 9.6 mg/mL
- M4N concentration (stability) ([1]; 15 mM Phosphate, pH 3, 30% HP-β-CD, 10 days at 60° C.): 9.7 mg/mL
- M4N concentration (stability) ([1]; 15 mM Phosphate, pH 3, 30% HP-β-CD, 14 days at 60° C.): 9.6 mg/mL
- M4N concentration (stability) ([1]; 15 mM Phosphate, pH 4, 30% HP-β-CD, 0 days at 60° C.): 10.5 mg/mL
- M4N concentration (stability) ([1]; 15 mM Phosphate, pH 4, 30% HP-β-CD, 2 days at 60° C.): 10.1 mg/mL
- M4N concentration (stability) ([1]; 15 mM Phosphate, pH 4, 30% HP-β-CD, 6 days at 60° C.): 9.6 mg/mL
- M4N concentration (stability) ([1]; 15 mM Phosphate, pH 4, 30% HP-β-CD, 10 days at 60° C.): 9.7 mg/mL
- M4N concentration (stability) ([1]; 15 mM Phosphate, pH 4, 30% HP-β-CD, 14 days at 60° C.): 9.6 mg/mL
- M4N concentration (stability) ([1]; 15 mM Phosphate, pH 7, 30% HP-β-CD, 0 days at 60° C.): 10.5 mg/mL
- M4N concentration (stability) ([1]; 15 mM Phosphate, pH 7, 30% HP-β-CD, 2 days at 60° C.): 10.3 mg/mL
- M4N concentration (stability) ([1]; 15 mM Phosphate, pH 7, 30% HP-β-CD, 6 days at 60° C.): 9.7 mg/mL
- M4N concentration (stability) ([1]; 15 mM Phosphate, pH 7, 30% HP-β-CD, 10 days at 60° C.): 9.7 mg/mL
- M4N concentration (stability) ([1]; 15 mM Phosphate, pH 7, 30% HP-β-CD, 14 days at 60° C.): 9.7 mg/mL
- M4N concentration (stability) ([1]; 15 mM Phosphate, pH 8, 30% HP-β-CD, 0 days at 60° C.): 10.6 mg/mL
- M4N concentration (stability) ([1]; 15 mM Phosphate, pH 8, 30% HP-β-CD, 2 days at 60° C.): 10.4 mg/mL
- M4N concentration (stability) ([1]; 15 mM Phosphate, pH 8, 30% HP-β-CD, 6 days at 60° C.): 9.7 mg/mL
- M4N concentration (stability) ([1]; 15 mM Phosphate, pH 8, 30% HP-β-CD, 10 days at 60° C.): 9.8 mg/mL
- M4N concentration (stability) ([1]; 15 mM Phosphate, pH 8, 30% HP-β-CD, 14 days at 60° C.): 9.6 mg/mL
- M4N concentration (stability) ([1]; 15 mM Phosphate, pH 9, 30% HP-β-CD, 0 days at 60° C.): 10.4 mg/mL
- M4N concentration (stability) ([1]; 15 mM Phosphate, pH 9, 30% HP-β-CD, 2 days at 60° C.): 10.2 mg/mL
- M4N concentration (stability) ([1]; 15 mM Phosphate, pH 9, 30% HP-β-CD, 6 days at 60° C.): 9.7 mg/mL
- M4N concentration (stability) ([1]; 15 mM Phosphate, pH 9, 30% HP-β-CD, 10 days at 60° C.): 9.8 mg/mL
- M4N concentration (stability) ([1]; 15 mM Phosphate, pH 9, 30% HP-β-CD, 14 days at 60° C.): 9.7 mg/mL
- M4N impurities, share of total peak area ([1]; 14 day incubation at 60° C.): less than 0.1%
- apparent sample pH during the incubation period ([1]; 14 days at 60° C.): Little if any changes
- M4N concentration (stability) ([1]; WFI, 30% HP-β-CD, 0 days at 60° C.): 10.4 mg/mL
- M4N concentration (stability) ([1]; WFI, 30% HP-β-CD, 2 days at 60° C.): 10.1 mg/mL
- M4N concentration (stability) ([1]; WFI, 30% HP-β-CD, 6 days at 60° C.): 9.9 mg/mL
- M4N concentration (stability) ([1]; WFI, 30% HP-β-CD, 10 days at 60° C.): 9.7 mg/mL
- M4N concentration (stability) ([1]; WFI, 30% HP-β-CD, 14 days at 60° C.): 9.6 mg/mL
- Individual Body Weights (Beagle dogs; Male dog 10567, SD13): 10.2 kg
- gross pathology and microscopic changes (Beagle dogs; dog, in vivo): no test-article related gross pathology findings or microscopic changes
- doses at which no treatment-related adverse effects were observed (Beagle dogs; dog, in vivo, iv): up to 200 mg/kg
- mortality (Beagle dogs; escalating IV infusion doses 25 to 200 mg/kg in 20% HP-β-CD/50% PEG 300 vehicle): no effect
